The target in assay [1] is Nociceptin receptor (Mus musculus) (UniProt P35377). The assay can be described thus: Antagonist activity at ORL1[…] receptor in ICR mouse vas deferens assessed as inhibition of electrically-stimulated muscle contraction. The assay is classed as functional, tissue-based.
For assay [2], the target named is T1, Nociceptin receptor (Homo sapiens, UniProt P41146). Nature of the assay: Activity at human ORL1-Galpha fusion receptor in COS7 cells assessed as stimulation of [35S]GTP-gamma-S binding. The assay is classed as functional, cell-based, COS-7. In general terms: GTPγS resists hydrolysis and so accumulates on activated G proteins.
T1 sequence (P41146 whole entry, the tested form may be a part): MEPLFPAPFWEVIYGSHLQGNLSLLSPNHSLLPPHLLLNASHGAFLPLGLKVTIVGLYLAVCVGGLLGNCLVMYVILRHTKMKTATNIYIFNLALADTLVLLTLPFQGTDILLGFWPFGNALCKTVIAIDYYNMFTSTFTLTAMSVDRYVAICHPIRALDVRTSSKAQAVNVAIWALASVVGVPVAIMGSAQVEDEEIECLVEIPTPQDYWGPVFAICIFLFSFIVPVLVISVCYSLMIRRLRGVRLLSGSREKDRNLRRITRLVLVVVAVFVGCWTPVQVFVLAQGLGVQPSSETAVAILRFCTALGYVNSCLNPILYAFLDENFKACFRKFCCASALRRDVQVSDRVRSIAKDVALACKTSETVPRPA
The target in assay [3] is T1, Nociceptin receptor. Nature of the assay: Displacement of [3H]nociceptin from human ORL1-Galpha fusion receptor in COS7 cells. The assay is classed as cell-based, COS-7. In general terms: Displacement assays read how much labelled ligand stays bound in the presence of the test substance.
Assay [4] concerns the target Nociceptin receptor (Mus musculus) (UniProt P35377). Nature of the assay: Antagonist activity at ORL1[…] receptor in ICR mouse vas deferens assessed as inhibition of electrically-stimulated muscle contraction at 10 uM. In kind it is functional, tissue-based. Set-up: scale not given: the % may be the effect or the level left.
For assay [5] the target is unchanged. The assay can be described thus: Agonist activity at ORL1[…] receptor in ICR mouse vas deferens assessed as inhibition of electrically-stimulated muscle contraction at 10 uM. In kind it is functional, tissue-based. Also on record: scale not given: the % may be the effect or the level left.

pEC50, pIC50: −log10 of the molar value. Activity calls are given as the source filed them. The calls are words filed in the database; no cut-off is given here. Peptide text beside a SMILES is read from it. * marks the point of attachment. Isovaleryl = CC(C)CC(=O)*; Propionyl = CCC(=O)*; Bz = O=C(c1ccccc1)*

Chain of Nociceptin receptor (Mus musculus) (P35377 whole entry, the tested form may be a part): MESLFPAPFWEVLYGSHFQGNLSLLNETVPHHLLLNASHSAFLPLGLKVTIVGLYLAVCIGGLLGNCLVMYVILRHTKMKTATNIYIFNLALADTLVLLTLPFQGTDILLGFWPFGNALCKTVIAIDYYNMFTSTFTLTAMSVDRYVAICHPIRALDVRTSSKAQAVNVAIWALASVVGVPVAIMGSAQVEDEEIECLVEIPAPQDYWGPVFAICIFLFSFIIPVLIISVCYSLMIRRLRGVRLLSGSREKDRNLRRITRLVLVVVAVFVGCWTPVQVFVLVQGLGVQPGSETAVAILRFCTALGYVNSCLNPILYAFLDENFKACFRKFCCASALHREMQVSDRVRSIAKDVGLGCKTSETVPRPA

For the molecule `CC[C@H](C)[C@H](NC(=O)[C@H](CCCNC(=N)N)NC(=O)[C@H](Cc1ccc(O)cc1)NC(=O)[C@H](Cc1ccccc1)NC(=O)[C@@H](N)CCCNC(=N)N)C(=O)N[C@@H](CCCCN)C(N)=O`, in assay [1], the result was inactive.

The term pEC50 denotes the negative decadic logarithm of the EC50, by convention in mol/L. As usually defined, the pIC50 is the negative decadic logarithm of the IC50, by convention in mol/L. With `CCCC(C)C(=O)N[C@@H](CCCNC(=N)N)C(=O)N[C@@H](Cc1ccc(O)cc1)C(=O)N[C@@H](Cc1ccc(O)cc1)C(=O)N[C@@H](CCCNC(=N)N)C(=O)N[C@H](C(=O)N[C@@H](CCCCN)C(N)=O)[C@@H](C)CC` (stereo partly drawn), the pEC50 on Nociceptin receptor [2] was 7.62. Further, the pIC50 on Nociceptin receptor [3] was 7.33.

At Nociceptin receptor [3], `CC[C@H](C)[C@H](NC(=O)[C@H](CCCNC(=N)N)NC(=O)[C@H](Cc1ccc(O)cc1)NC(=O)[C@H](Cc1ccc(O)cc1)NC(=O)[C@@H](N)CCCNC(=N)N)C(=O)N[C@@H](CCCCN)C(N)=O` had a pIC50 of 6.66.

Regarding `CC[C@H](C)[C@H](NC(=O)[C@H](CCCNC(=N)N)NC(=O)[C@H](Cc1ccc(O)cc1)NC(=O)[C@H](Cc1ccc(O)cc1)NC(=O)[C@H](CCCNC(=N)N)NC(=O)C(C)C)C(=O)N[C@@H](CCCCN)C(N)=O`, the negative logarithm of the EC50 (pEC50) at Nociceptin receptor [2] is 7.35. Further, at Nociceptin receptor [3], the pIC50 was 8.55.

For `CC[C@H](C)[C@H](NC(=O)[C@H](CCCN=C(N)N)NC(=O)[C@H](Cc1ccc(O)cc1)NC(=O)[C@H](Cc1ccc(O)cc1)NC(=O)[C@H](CCCN=C(N)N)NC(=O)CC(C)(C)C)C(=O)N[C@@H](CCCCN)C(N)=O`, at Nociceptin receptor [2], the pEC50 was 7.33. The negative-log IC50 (pIC50) on Nociceptin receptor [3] was 7.77.

As to `CCCCC(=O)N[C@@H](CCCN=C(N)N)C(=O)N[C@@H](Cc1ccc(O)cc1)C(=O)N[C@@H](Cc1ccc(O)cc1)C(=O)N[C@@H](CCCN=C(N)N)C(=O)N[C@H](C(=O)N[C@@H](CCCCN)C(N)=O)[C@@H](C)CC`, on Nociceptin receptor [3], the pIC50 was 8.25.

In turn, `CC[C@H](C)[C@H](NC(=O)[C@H](CCCNC(=N)N)NC(=O)[C@H](Cc1ccc(O)cc1)NC(=O)[C@H](Cc1ccc(O)cc1)NC(=O)[C@H](CCCNC(=N)N)NC(=O)CC(C)C)C(=O)N[C@@H](CCCCN)C(N)=O` showed a pIC50 on Nociceptin receptor [3] of 8.13.

Turning to `CC[C@H](C)[C@H](NC(=O)[C@H](CCCNC(=N)N)NC(=O)[C@H](Cc1ccc(O)cc1)NC(=O)[C@H](Cc1ccccc1)NC(=O)[C@H](CCCNC(=N)N)NC(=O)CC(C)C)C(=O)N[C@@H](CCCCN)C(N)=O` (Isovaleryl-RFYRIK-NH2), the Activity entry in assay [1] was “Dose-dependent effect”.

With `CCC(=O)N[C@@H](CCCNC(=N)N)C(=O)N[C@@H](Cc1ccc(O)cc1)C(=O)N[C@@H](Cc1ccc(O)cc1)C(=O)N[C@@H](CCCNC(=N)N)C(=O)N[C@H](C(=O)N[C@@H](CCCCN)C(N)=O)[C@@H](C)CC`, the negative-log EC50 (pEC50) on Nociceptin receptor [2] was 7.56. The molecule further showed a pIC50 on Nociceptin receptor [3] of 8.77.

Consider `CC[C@H](C)[C@H](NC(=O)[C@H](CCCN=C(N)N)NC(=O)[C@H](Cc1ccc(O)cc1)NC(=O)[C@H](Cc1ccc(O)cc1)NC(=O)[C@H](CCCN=C(N)N)NC(=O)C(C)(C)CC)C(=O)N[C@@H](CCCCN)C(N)=O`, for which the negative logarithm of the EC50 (pEC50) at Nociceptin receptor [2] is 7.75. Besides, on Nociceptin receptor [3], the pIC50 is 7.34.

On to `CC[C@H](C)[C@H](NC(=O)[C@H](CCCN=C(N)N)NC(=O)[C@H](Cc1ccc(O)cc1)NC(=O)[C@H](Cc1ccc(O)cc1)NC(=O)[C@H](CCCN=C(N)N)NC=O)C(=O)N[C@@H](CCCCN)C(N)=O`, for which the negative logarithm of the EC50 (pEC50) on Nociceptin receptor [2] was 7.63. This molecule showed a pIC50 at Nociceptin receptor [3] of 9.18.

`CCCCCC(=O)N[C@@H](CCCNC(=N)N)C(=O)N[C@@H](Cc1ccc(O)cc1)C(=O)N[C@@H](Cc1ccc(O)cc1)C(=O)N[C@@H](CCCNC(=N)N)C(=O)N[C@H](C(=O)N[C@@H](CCCCN)C(N)=O)[C@@H](C)CC` had a pIC50 on Nociceptin receptor [3] of 7.66.

Consider `CCC(=O)N[C@@H](CCCNC(=N)N)C(=O)N[C@@H](Cc1ccccc1)C(=O)N[C@@H](Cc1ccc(O)cc1)C(=O)N[C@@H](CCCNC(=N)N)C(=O)N[C@H](C(=O)N[C@@H](CCCCN)C(N)=O)[C@@H](C)CC` (Propionyl-RFYRIK-NH2), for which, in assay [4], the Activity was 90%.

Take `CC[C@H](C)[C@H](NC(=O)[C@H](CCCNC(=N)N)NC(=O)[C@H](Cc1ccc(O)cc1)NC(=O)[C@H](Cc1ccc(O)cc1)NC(=O)[C@H](CCCNC(=N)N)NC(=O)c1ccccc1)C(=O)N[C@@H](CCCCN)C(N)=O`: at Nociceptin receptor [2], the pEC50 is 7.74. For the same molecule, at Nociceptin receptor [3], the negative logarithm of the IC50 (pIC50) is 7.83.

For the molecule `CC[C@H](C)[C@H](NC(=O)[C@H](CCCNC(=N)N)NC(=O)[C@H](Cc1ccc(O)cc1)NC(=O)[C@H](Cc1ccccc1)NC(=O)[C@H](CCCNC(=N)N)NC(=O)c1ccccc1)C(=O)N[C@@H](CCCCN)C(N)=O` (Bz-RFYRIK-NH2), in assay [4], the Activity amounted to 90%.

Regarding `CC[C@H](C)[C@H](NC(=O)[C@H](CCCN=C(N)N)NC(=O)[C@H](Cc1ccc(O)cc1)NC(=O)[C@H](Cc1ccc(O)cc1)NC(=O)[C@H](CCCN=C(N)N)NC(C)=O)C(=O)N[C@@H](CCCCN)C(N)=O`, in assay [5], the Activity is 40%.

For the molecule `CC[C@H](C)[C@H](NC(=O)[C@H](CCCN=C(N)N)NC(=O)[C@H](Cc1ccc(O)cc1)NC(=O)[C@H](Cc1ccc(O)cc1)NC(=O)[C@H](CCCN=C(N)N)NC(=O)C12CC3CC(CC(C3)C1)C2)C(=O)N[C@@H](CCCCN)C(N)=O`, at Nociceptin receptor [2], the negative-log EC50 (pEC50) was 7.72. Also, the pIC50 on Nociceptin receptor [3] was 8.47.

The molecule `CCC(CC)C(=O)N[C@@H](CCCN=C(N)N)C(=O)N[C@@H](Cc1ccc(O)cc1)C(=O)N[C@@H](Cc1ccc(O)cc1)C(=O)N[C@@H](CCCN=C(N)N)C(=O)N[C@H](C(=O)N[C@@H](CCCCN)C(N)=O)[C@@H](C)CC` gave a negative logarithm of the IC50 (pIC50) on Nociceptin receptor [3] of 7.03.

As to `CCCC(=O)N[C@@H](CCCNC(=N)N)C(=O)N[C@@H](Cc1ccc(O)cc1)C(=O)N[C@@H](Cc1ccc(O)cc1)C(=O)N[C@@H](CCCNC(=N)N)C(=O)N[C@H](C(=O)N[C@@H](CCCCN)C(N)=O)[C@@H](C)CC`, at Nociceptin receptor [2], the pEC50 is 7.49. The pIC50 at Nociceptin receptor [3] is 8.73.

With `CC[C@H](C)[C@H](NC(=O)[C@H](CCCNC(=N)N)NC(=O)[C@H](Cc1ccc(O)cc1)NC(=O)[C@H](Cc1ccc(O)cc1)NC(=O)[C@H](CCCNC(=N)N)NC(=O)C(C)(C)C)C(=O)N[C@@H](CCCCN)C(N)=O`, the pEC50 on Nociceptin receptor [2] is 7.01. Moreover, the pIC50 at Nociceptin receptor [3] is 7.83.

With `CC(C)C[C@H](NC(=O)[C@H](CCCCN)NC(=O)[C@H](CCCNC(=N)N)NC(=O)[C@H](C)NC(=O)[C@H](CO)NC(=O)[C@H](CCCCN)NC(=O)[C@H](CCCNC(=N)N)NC(=O)[C@H](C)NC(=O)CNC(=O)[C@@H](NC(=O)[C@H](Cc1ccccc1)NC(=O)CNC(=O)CNC(=O)[C@@H](N)Cc1ccccc1)[C@@H](C)O)C(=O)N[C@@H](C)C(=O)N[C@@H](CC(N)=O)C(=O)N[C@@H](CCC(N)=O)C(=O)O`, the ED50 in assay [1] worked out at 19.3 nM.

For `CCC(C)C(=O)N[C@@H](CCCNC(=N)N)C(=O)N[C@@H](Cc1ccc(O)cc1)C(=O)N[C@@H](Cc1ccc(O)cc1)C(=O)N[C@@H](CCCNC(=N)N)C(=O)N[C@H](C(=O)N[C@@H](CCCCN)C(N)=O)[C@@H](C)CC` (stereo partly drawn), the negative-log EC50 (pEC50) at Nociceptin receptor [2] is 7.28. At Nociceptin receptor [3], this molecule had a pIC50 of 7.67.

Source of the values: ChEMBL document CHEMBL1142261 (Bioorg Med Chem, 2008).
